Data taken from patent US20250241313A1, “APPLICATION OF ACTIVE SUBSTANCE IN IMPROVING SEED VIGOR AND METHOD FOR IMPROVING SEED VIGOR” (HUNAN HYBRID RICE RESEARCH CENTER, priority 2024, published 2025).

Columns and labels:
Assay type in all cases: in vivo
wheat seeds = assay: Wheat seed germination (seed vigor) after seed soaking; settings: for Average germination index / average germination potential / Average germination rate: wheat seeds soaked 24 hours in 0.3 mM aqueous solution; for average germination potential: first 5 days; for Average germination rate: within 7 days
Method: (§1) In the following examples, the relative activity index is calculated by the following formula: • (1) average germination rate: ×100% (total number of germinated seeds/total number of tested seeds within 7 days); • (2) average germination potential: ×100% (total number of germinated seeds/total number of tested seeds in the first 5 days); • (3) average germination index: Σ(number of sprouts per day/[…]); • (4) statistical P-value: generally, X represents the statistical quantity of the test, and when H0 is true, the value C of the statistical quantity can be calculated from the sample data, and the P value can be obtained from the specific distribution of the test statistical quantity X. Specifically, the P value of the left test is the probability that the test statistic X is smaller than the sample statistic C, i.e.: P=P {X<C} the P value for the right-side test is the probability that the test statistic X is greater than the sample statistic C: P=P {X>C} the P value of the two-sided test is 2 times the probability that the test statistic X falls within the tail region where the sample statistic C is an endpoint: P=2P {X>C} (when C is located at the right end of the distribution curve) or P=2P {X<C} (when C is located at the left end of the distribution curve) if X obeys a normal distribution and a t-distribution, the distribution curve is symmetric about the vertical axis, so its P value can be represented as P=P {|X|>C}; • after the P-value has been calculated, a test can be concluded by comparing a given significance level a to the P-value: rejecting the original hypothesis if a>P value; if a≤P value, the original assumption is accepted at significance level a. […]

tomato seeds = assay: Tomato seed germination (seed vigor) after seed soaking; settings: for Average germination index / average germination potential / Average germination rate: tomato seeds soaked 24 hours in 0.3 mM aqueous solution; for average germination potential: first 5 days; for Average germination rate: within 7 days
Method: as §1

corn seeds = assay: Corn seed germination (seed vigor) after seed soaking; settings: for Average germination index / average germination potential / Average germination rate: corn seeds soaked 24 hours in 0.3 mM aqueous solution; for average germination potential: first 5 days; for Average germination rate: within 7 days
Method: as §1

rice seeds = assay: Rice seed germination (seed vigor) after seed soaking
Method: as §1

tobacco seeds = assay: Tobacco seed germination (seed vigor) after seed soaking; settings: for Average germination index / average germination potential / Average germination rate: tobacco seeds soaked 24 hours in 0.3 mM aqueous solution; for average germination potential: first 5 days; for Average germination rate: within 7 days
Method: as §1

[1] = rice seeds soaked 24 hours in 0.3 mM aqueous solution
[2] = rice seeds soaked 24 hours in 0.3 mM aqueous solution, germinated in the first 5 days
[3] = rice seeds soaked 24 hours in 0.3 mM aqueous solution, germinated within 7 days, 3 parallel groups

Row | Compound | Average germination index (wheat seeds) | average germination potential (wheat seeds) | Average germination rate (wheat seeds) | Average germination index (tomato seeds) | average germination potential (tomato seeds) | Average germination rate (tomato seeds) | Average germination index (corn seeds) | average germination potential (corn seeds) | Average germination rate (corn seeds) | Average germination index (rice seeds; [1]) | average germination potential (rice seeds; [2]) | Average germination rate (rice seeds; [3]) | Average germination index (tobacco seeds) | average germination potential (tobacco seeds) | Average germination rate (tobacco seeds) | further results
1 | C=C(OP(=O)(O)O)C(=O)O [PEP, phosphoenolpyruvate] | 6.367 | 24% | 24% | 9.783 | 59% | 60% | 14.2 ^ | 70% | 68% | 11.04 | 66% | 72% | 12.78 | 64% | 70% | germination condition and root growth versus water control (FIG. 4-5) (wheat seeds; wheat seeds, 0.3 mM, day 7): the root growth of the wheat seeds can be accelerated; germination condition and root system growth versus water control (FIG. 8) (tomato seeds; tomato seeds, 0.3 mM, day 7): the root system growth of the tomato seeds can be accelerated; germination condition and root growth versus water control (FIG. 6-7) (corn seeds; corn seeds, 0.3 mM, day 7): the root growth of the corn seeds can be accelerated; Average germination index (rice seeds; rice seeds, 0.09 mM aqueous solution): 8.43; average germination potential (rice seeds; rice seeds, 0.09 mM aqueous solution, first 5 days): 61%; Average germination rate (rice seeds; rice seeds, 0.09 mM aqueous solution, within 7 days): 63%; Average germination index (rice seeds; rice seeds, 0.2 mM aqueous solution): 11.04; average germination potential (rice seeds; rice seeds, 0.2 mM aqueous solution, first 5 days): 66%; Average germination rate (rice seeds; rice seeds, 0.2 mM aqueous solution, within 7 days): 72%; germination condition and root system / leaf growth versus water control (FIG. 1-3) (rice seeds; rice seeds, 0.3 mM, day 4 and day 7): significantly accelerate the growth of the root system and leaf of rice seeds; germination condition and root system growth versus water control (FIG. 9) (tobacco seeds; tobacco seeds, 0.3 mM, day 7): the root system growth of the tobacco seeds can be accelerated
2 | C=C(OP(=O)([O-])O)C(=O)O.[K+] [PEP-K salt, potassium phosphoenolpyruvate] | 6.333 | 21% | 22% | 10.73 | 64% | 65% | 14.5 ^ | 70% | 68% | 10.76 | 64% | 68% | 11.83 | 64% | 66% | Average germination index (rice seeds; rice seeds, 0.5 mM aqueous solution): 10.76; average germination potential (rice seeds; rice seeds, 0.5 mM aqueous solution, first 5 days): 64%; Average germination rate (rice seeds; rice seeds, 0.5 mM aqueous solution, within 7 days): 68%
3 | C=C(OP(=O)(O)O)C(=O)O.NC1CCCCC1 [PEP-cyclohexylammonium salt, cyclohexylammonium phosphoenolpyruvate] | 5.067 | 19% | 21% | 10.23 | 65% | 66% | 10.25 ^ | 60% | 58% | 10.82 | 66% | 70% | 10.53 | 65% | 68% | Average germination index (rice seeds; rice seeds, 1.1 mM aqueous solution): 9.82; average germination potential (rice seeds; rice seeds, 1.1 mM aqueous solution, first 5 days): 64%; Average germination rate (rice seeds; rice seeds, 1.1 mM aqueous solution, within 7 days): 62%
